Legend:
[1] = system: lymphocytes from MLN of Mtb-infected mice; experiment: Recall response to Mtb lipids in Mtb-infected hCD1Tg mice (IFN-γ ELISPOT); type: cell-based
DN1 T cells = type: cell-based, mouse; conditions: screen of 6 common adjuvants, CD69 on DN1 T cells
Description: 24 h later, the percentage of DN1 T cells expressing CD69 was determined by FACS. Data are representative of two experiments.

Substance | T cell responses to Mtb lipid [1] | enhancement of a suboptimal dose of MA-MC (DN1 T cells)
Glucose monomycolate [GMM] | readily detected | –
cyclic-di-GMP | – | top three candidates
Sulfoglycolipid [SGL] | readily detected | –
monophosphoryl lipid A [MPLA] | – | top three candidates
